Experimental data from patent publication US12310364B2, “Safened compositions comprising pyridine carboxylate herbicides and cloquintocet” (Corteva Agriscience LLC, priority 2018, dated 2025).
Values joined by “and” are separate entries in the source; they are usually repeats but may differ in a detail not shown here. Equal entries are not always repeated.

Assays:
Assay type in all cases: in vivo
[1] = system: Italian ryegrass (LOLMU, Lolium multiflorum); assay: Greenhouse postemergence trial, visual injury on Italian ryegrass; details: Table 19
Text: (§1) Greenhouse Trial Methodology—Evaluation of Postemergence Herbicidal Safening in Crops
(§2) Seeds of the desired test plant species were planted in a 90:10% v/v (volume/volume) mixture of PRO-MIX® BX (Premier Tech Horticulture, Quakertown, PA, USA) and PROFILE® GREENS GRADE™ (Profile Products LLC, Buffalo Grove, IL, USA) planting mixture, which typically has a pH of 5.2 to 6.2 and an organic matter content of at least 50 percent, in plastic pots with a surface area of 103.2 square centimeters (cm^2). When required to ensure good germination and healthy plants, a fungicide treatment and/or other chemical or physical treatment was applied. The plants were grown for 7-36 days (d) in a greenhouse with an approximate 14-hour (h) photoperiod which was maintained at about 23° C. during the day and 22° C. during the night. Nutrients and water were added on a regular basis and supplemental lighting was provided with overhead metal halide 1000-Watt lamps as necessary. The plants were employed for testing when they reached the second or third true leaf stage.
(§3) Emulsifiable concentrates of each of each pyridine carboxylate herbicide (Compound A or Compound B) were prepared at 100 grams acid equivalent per liter (g ae/L). An aliquot of each emulsifiable concentrate was placed in a 25 mL glass vial and diluted with an aqueous mixture of 1.25% (v/v) ACTIROB® B esterified rapeseed oil (Bayer Crop Science, Research Triangle Park, NC, USA) or MSO® Concentrate with LECI-TECH® methylated soybean oil (Loveland Products, Loveland, CO, USA) to obtain concentrated stock solutions at the highest application rate for each herbicide, based upon a 12 milliliter (mL) application volume at a rate of 187 liters per hectare (L/ha). The concentrated stock solutions were further diluted with an aqueous mixture of 1.25% v/v ACTIROB® B or MSO® Concentrate with LECI-TECH® to obtain stock solutions at reduced application rates for each herbicide. Spray solutions of the herbicide combinations (Compound A or Compound B plus safener) were prepared by adding weighed amounts or aliquots of the safener to the stock solutions of Compound A or Compound B to form 12-mL spray solutions in two-way combinations. […]
(§4) The treated plants and control plants were placed in a greenhouse as described above and watered by sub-irrigation to prevent wash-off of the test compounds. After 20-22 d, the condition of the test plants as compared with that of the control plants was determined visually and scored on a scale of 0 to 100 percent where 0 corresponds to no injury and 100 corresponds to complete kill.

[2] = system: barnyardgrass (ECHCG, Echinochloa crus-galli); assay: Greenhouse postemergence trial, visual injury on barnyardgrass; details: Table 19
Text: as §1, §2, §3, §4

[3] = system: Avena sativa (common oat), AVESA; assay: Greenhouse postemergence safening trial, visual injury on common oat
Description: (§5) Greenhouse Trial Methodology-Evaluation of Postemergence Herbicidal […] in Crops […] When required to ensure good germination and healthy plants, a fungicide treatment and/or other chemical or physical treatment was applied. The plants were grown for 7-36 days (d) in a greenhouse with an approximate 14-hour (h) photoperiod which was maintained at about 23° C. during the day and 22° C. during the night. Nutrients and water were added on a regular basis and supplemental lighting was provided with overhead metal halide 1000-Watt lamps as necessary. The plants were employed for testing when they reached the second or third true leaf stage. Emulsifiable concentrates of each of each pyridine carboxylate herbicide (Compound A or Compound B) were prepared at 100 grams acid equivalent per liter (g ae/L). […] The concentrated stock solutions were further diluted with an aqueous mixture of 1.25% […] or MSO® Concentrate with LECI-TECH® to obtain stock solutions at reduced application rates for each herbicide. Spray solutions of the herbicide combinations (Compound A or Compound B plus safener) were prepared by adding weighed amounts or aliquots of the safener to the stock solutions of Compound A or Compound B to form 12-mL spray solutions in two-way combinations. […] Control plants were sprayed in the same manner with the solvent blank. All herbicide (component a) application rates are given as “g ae/ha” and all safener (component b) application rates are given as “g ai/ha.” The treated plants and control plants were placed in a greenhouse as described above and watered by sub-irrigation to prevent wash-off of the test compounds.

[4] = system: Triticum aestivum (winter wheat), TRZAW; assay: Greenhouse postemergence safening trial, visual injury on winter wheat
Description: as §5

[5] = system: velvetleaf (ABUTH, Abutilon theophrasti); assay: Greenhouse postemergence trial, visual injury on velvetleaf; details: Table 19
Text: as §1, §2, §3, §4

[6] = system: Canada thistle (CIRAR, Cirsium arvense); assay: Greenhouse postemergence trial, visual injury on Canada thistle; details: Table 19
Text: as §1, §2, §3, §4

maize (ZEAMX) = assay: Greenhouse postemergence safening trial, visual injury on maize
Text: as §1, §2
(§6) Emulsifiable concentrates of each of each pyridine carboxylate herbicide (Compound A or Compound B) were prepared at 100 grams acid equivalent per liter (g ae/L). An aliquot of each emulsifiable concentrate was placed in a 25 mL glass vial and diluted with an aqueous mixture of 1.25% (v/v) ACTIROB® B esterified rapeseed oil (Bayer Crop Science, Research Triangle Park, NC, USA) or MSO® Concentrate with LECI-TECH® methylated soybean oil (Loveland Products, Loveland, CO, USA) to obtain concentrated stock solutions at the highest application rate for each herbicide, based upon a 12 milliliter (mL) application volume at a rate of 187 liters per hectare (L/ha). The concentrated stock solutions were further diluted with an aqueous mixture of 1.25% v/v ACTIROB® B or MSO® Concentrate with LECI-TECH® to obtain stock solutions at reduced application rates for each herbicide. Spray solutions of the herbicide combinations (Compound A or Compound B plus safener) were prepared by adding weighed amounts or aliquots of the safener to the stock solutions of Compound A or Compound B to form 12-mL spray solutions in two-way combinations.
(§7) The spray solutions were applied to the plant material with an overhead Mandel track sprayer equipped with 8002E nozzles calibrated to deliver 187 L/ha over an application area of 0.503 square meters (m^2) at a spray height of 18 inches (43 centimeters (cm)) above the average plant canopy. Control plants were sprayed in the same manner with the solvent blank. All herbicide (component a) application rates are given as “g ae/ha” and all safener (component b) application rates are given as “g ai/ha.”
as §4

[7] = system: nutsedge (CYPES, Cyperus esculentus); assay: Greenhouse postemergence trial, visual injury on nutsedge
Text: as §1, §2, §6, §7, §4

[8] = system: Hordeum vulgare (winter barley), HORVW; assay: Greenhouse postemergence safening trial, visual injury on winter barley
Description: as §5

[9] = system: blackgrass (ALOMY, Alopecurus myosuroides); assay: Greenhouse postemergence trial, visual injury on blackgrass; details: Table 19
Text: as §1, §2, §3, §4

[10] = system: giant foxtail (SETFA, Setaria faberi); assay: Greenhouse postemergence trial, visual injury on giant foxtail; details: Table 19
Text: as §1, §2, §3, §4

[11] = CQC-mexyl 40 g/ha alone, Table 14
[12] = CQC-mexyl 5 g/ha alone, Table 15
[13] = CQC-mexyl 10 g/ha alone, Table 15
[14] = CQC-mexyl 10 g/ha alone, Table 16
[15] = CQC-mexyl 20 g/ha alone, Table 15
[16] = CQC-mexyl 20 g/ha alone, Table 16
[17] = CQC-mexyl 20 g/ha alone, Table 19
[18] = CQC-mexyl 40 g/ha alone, Table 15
[19] = CQC-mexyl 40 g/ha alone, Table 16
[20] = CQC-mexyl 40 g/ha alone, Table 19
[21] = CQC-mexyl 80 g/ha alone, Table 16
[22] = CQC-mexyl 80 g/ha alone, Table 19
[23] = CQC-mexyl 20 g/ha alone, Table 17
[24] = CQC-mexyl 40 g/ha alone, Table 17
[25] = CQC-mexyl 80 g/ha alone, Table 17
[26] = CQC-mexyl 120 g/ha alone, Table 17
[27] = Compound A 40 g/ha alone, Table 14
[28] = Compound A 20 g/ha alone, Table 15
[29] = Compound A 20 g/ha alone, Table 19
[30] = Compound A 40 g/ha alone, Table 16
[31] = Compound A 40 g/ha alone, Table 17
[32] = Compound A 40 g/ha alone, Table 18

CCCCCC(C)OC(=O)COc1ccc(Cl)c2cccnc12 (stereo not drawn) [CQC-mexyl, cloquintocet-mexyl]
0%: % visual injury, Ob ([1]; CQC-mexyl 20 g/ha alone) | % visual injury, Ob ([1]; CQC-mexyl 40 g/ha alone) | % visual injury, Ob ([1]; CQC-mexyl 80 g/ha alone) | % visual injury, Ob ([2]; CQC-mexyl 20 g/ha alone) | % visual injury, Ob ([2]; CQC-mexyl 40 g/ha alone) | % visual injury, Ob ([2]; CQC-mexyl 80 g/ha alone) | % visual injury, Ob [3, 11] | % visual injury, Ob ([3]; safener alone 40 g/ha) | % visual injury, Ob [4, 12] | % visual injury, Ob [4, 13] | % visual injury, Ob [4, 14] | % visual injury, Ob [4, 15] | % visual injury, Ob [4, 16] | % visual injury, Ob [4, 17] | % visual injury, Ob [4, 11] | % visual injury, Ob [4, 18] | % visual injury, Ob [4, 19] | % visual injury, Ob [4, 20] | % visual injury, Ob [4, 21] | % visual injury, Ob [4, 22] | % visual injury, Ob ([4]; safener alone 40 g/ha) | % visual injury, Ob ([5]; CQC-mexyl 20 g/ha alone) | % visual injury, Ob ([5]; CQC-mexyl 40 g/ha alone) | % visual injury, Ob ([5]; CQC-mexyl 80 g/ha alone) | % visual injury, Ob ([6]; CQC-mexyl 20 g/ha alone) | % visual injury, Ob ([6]; CQC-mexyl 40 g/ha alone) | % visual injury, Ob ([6]; CQC-mexyl 80 g/ha alone) | % visual injury, Ob (maize (ZEAMX); [23]) | % visual injury, Ob (maize (ZEAMX); [17]) | % visual injury, Ob (maize (ZEAMX); [24]) | % visual injury, Ob (maize (ZEAMX); [20]) | % visual injury, Ob (maize (ZEAMX); [25]) | % visual injury, Ob (maize (ZEAMX); [22]) | % visual injury, Ob (maize (ZEAMX); [26]) | % visual injury, Ob [7, 23] | % visual injury, Ob [7, 17] | % visual injury, Ob [7, 24] | % visual injury, Ob [7, 20] | % visual injury, Ob [7, 25] | % visual injury, Ob [7, 22] | % visual injury, Ob [7, 26] | % visual injury, Ob [8, 12] | % visual injury, Ob [8, 13] | % visual injury, Ob [8, 14] | % visual injury, Ob [8, 15] | % visual injury, Ob [8, 16] | % visual injury Δ [8, 11] | % visual injury, Ob [8, 11] | % visual injury, Ob [8, 18] | % visual injury, Ob [8, 19] | % visual injury, Ob [8, 21] | % visual injury Δ ([8]; safener alone 40 g/ha) | % visual injury, Ob ([8]; safener alone 40 g/ha) | % visual injury, Ob ([9]; CQC-mexyl 20 g/ha alone) | % visual injury, Ob ([9]; CQC-mexyl 40 g/ha alone) | % visual injury, Ob ([9]; CQC-mexyl 80 g/ha alone) | % visual injury, Ob ([10]; CQC-mexyl 20 g/ha alone) | % visual injury, Ob ([10]; CQC-mexyl 40 g/ha alone) | % visual injury, Ob ([10]; CQC-mexyl 80 g/ha alone)

N#CCOC(=O)c1nc(-c2ccc3cc[nH]c3c2F)c(F)c(N)c1Cl [Compound A, cyanomethyl 4-amino-3-chloro-5-fluoro-6-(7-fluoro-1H-indol-6-yl)pyridine-2-carboxylate]
85%: % visual injury, Ob ([2]; Compound A 20 g/ha alone)
13%: % visual injury, Ob (maize (ZEAMX); [29])
40%: % visual injury, Ob [8, 27]
65%: % visual injury, Ob ([10]; Compound A 20 g/ha alone)
20%: % visual injury, Ob [4, 28] | % visual injury, Ob ([4]; herbicide alone 20 g/ha)
73%: % visual injury, Ob [7, 31] | % visual injury, Ob [7, 32]
95%: % visual injury, Ob ([5]; Compound A 20 g/ha alone) | % visual injury, Ob ([6]; Compound A 20 g/ha alone)
35%: % visual injury, Ob [4, 27] | % visual injury, Ob [4, 30]
30%: % visual injury, Ob [7, 29] | % visual injury, Ob [8, 30]
55%: % visual injury, Ob (maize (ZEAMX); [31]) | % visual injury, Ob (maize (ZEAMX); [32])
0%: % visual injury, Ob [3, 27] | % visual injury, Ob ([3]; herbicide alone 40 g/ha) | % visual injury Δ ([4]; herbicide alone 40 g/ha) | % visual injury Δ [8, 27] | % visual injury Δ ([8]; herbicide alone 40 g/ha) | % visual injury, Ob ([9]; Compound A 20 g/ha alone)
15%: % visual injury, Ob [8, 28] | % visual injury, Ob ([8]; herbicide alone 20 g/ha)
35% and 25%: % visual injury, Ob ([4]; herbicide alone 40 g/ha)
25%: % visual injury, Ob [4, 29]
5%: % visual injury, Ob ([1]; Compound A 20 g/ha alone)
40% and 30%: % visual injury, Ob ([8]; herbicide alone 40 g/ha)
